Substitutions are numbered along the chain they refer to.

Series [1] addresses T1, PntM M77S (Streptomyces arenae, UniProt E3VWI3, M77S).
T1 sequence (E3VWI3 1-398 M77S): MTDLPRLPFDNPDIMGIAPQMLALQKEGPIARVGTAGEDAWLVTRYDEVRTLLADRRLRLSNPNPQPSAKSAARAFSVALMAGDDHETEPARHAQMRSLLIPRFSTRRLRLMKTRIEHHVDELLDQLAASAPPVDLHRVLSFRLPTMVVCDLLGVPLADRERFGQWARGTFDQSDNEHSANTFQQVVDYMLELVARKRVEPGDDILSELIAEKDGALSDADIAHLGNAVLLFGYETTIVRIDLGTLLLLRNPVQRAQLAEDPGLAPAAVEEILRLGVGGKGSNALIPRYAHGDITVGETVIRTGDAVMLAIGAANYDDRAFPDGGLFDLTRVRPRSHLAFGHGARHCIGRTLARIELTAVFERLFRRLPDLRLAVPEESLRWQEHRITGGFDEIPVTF
Put plainly: Substrate binding assay.

For the next series, the target named is T2, PntM F232H (Streptomyces arenae, UniProt E3VWI3, F232H).
T2 sequence (E3VWI3 1-398 F232H): T1 sequence (E3VWI3 1-398 M77S) with S77M, F232H
In words: Substrate binding assay, PntM F232H. To be noted: PntM F232H mutant.

For series [2], the target named is T1, PntM M77S. In words: Steady-state kinetics and product profile, PntM M77S. It is filed as biochemical. To be noted: M77S mutant.
For series [3], the target named is wild-type PntM (CYP161C2) (Streptomyces arenae, UniProt E3VWI3). In words: Substrate binding assay.
Chain of wild-type PntM (CYP161C2) (E3VWI3 whole entry): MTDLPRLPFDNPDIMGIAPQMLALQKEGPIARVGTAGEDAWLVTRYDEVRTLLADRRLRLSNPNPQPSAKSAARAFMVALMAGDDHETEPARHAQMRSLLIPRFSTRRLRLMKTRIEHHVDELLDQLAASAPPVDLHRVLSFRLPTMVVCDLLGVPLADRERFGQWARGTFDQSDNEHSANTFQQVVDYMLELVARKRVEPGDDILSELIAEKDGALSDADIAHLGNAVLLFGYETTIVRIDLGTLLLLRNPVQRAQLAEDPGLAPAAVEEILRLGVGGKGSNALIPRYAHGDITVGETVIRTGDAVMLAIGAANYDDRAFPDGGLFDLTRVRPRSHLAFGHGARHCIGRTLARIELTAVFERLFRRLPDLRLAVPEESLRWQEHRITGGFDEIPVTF
Series [4] concerns the target T3, PntM F232A (Streptomyces arenae, UniProt E3VWI3, F232A).
T3 sequence (E3VWI3 1-398 F232A): T1 sequence (E3VWI3 1-398 M77S) with S77M, F232A
Put plainly: Steady-state kinetics and product profile, PntM F232A. It is filed as biochemical. The following applies: F232A mutant.

For a further series, the target named is T4, PntM-F232G (Streptomyces arenae, UniProt E3VWI3, F232G).
T4 sequence (E3VWI3 1-398 F232G): T1 sequence (E3VWI3 1-398 M77S) with S77M, F232G
In words: Substrate binding assay.

Series [5] concerns the target T5, PntM F232L (Streptomyces arenae, UniProt E3VWI3, F232L).
T5 sequence (E3VWI3 1-398 F232L): T1 sequence (E3VWI3 1-398 M77S) with S77M, F232L
Put plainly: Steady-state kinetics and product profile, PntM F232L. The class given is biochemical. To be noted: F232L mutant.

The target of series [6] is T3, PntM F232A. In words: Substrate binding assay.
Series [7] has as its target T6, PntM M81C-BME (Streptomyces arenae, UniProt E3VWI3, M81C).
T6 sequence (E3VWI3 1-398 M81C): T1 sequence (E3VWI3 1-398 M77S) with S77M, M81C
In words: Steady-state kinetics and product profile, PntM M81C-BME. The class given is biochemical. The following applies: M81C-BME mutant.

Series [8] concerns the target T7, PntM M81A (Streptomyces arenae, UniProt E3VWI3, M81A).
T7 sequence (E3VWI3 1-398 M81A): T1 sequence (E3VWI3 1-398 M77S) with S77M, M81A
In words: Steady-state kinetics and product profile, PntM M81A. It is filed as biochemical. To be noted: M81A mutant.

Series [9] concerns the target T7, PntM M81A. In words: Substrate binding assay.
The target of series [10] is T8, PntM M81C (Streptomyces arenae, UniProt E3VWI3, M81C).
T8 sequence (E3VWI3 1-398 M81C): T1 sequence (E3VWI3 1-398 M77S) with S77M, M81C
Put plainly: Steady-state kinetics and product profile, PntM M81C. The class given is biochemical. The following applies: M81C mutant.

Series [11] deals with T8, PntM M81C. Put plainly: Substrate binding assay.
For series [12], the target named is T6, PntM M81C-BME. Put plainly: Substrate binding assay.
The next series has as its target T9, PntM F232Y (Streptomyces arenae, UniProt E3VWI3, F232Y).
T9 sequence (E3VWI3 1-398 F232Y): T1 sequence (E3VWI3 1-398 M77S) with S77M, F232Y
In words: Substrate binding assay, PntM F232Y. To be noted: PntM F232Y mutant.

The target in series [13] is T5, PntM F232L. In words: Substrate binding assay.
Setting [14] is: comparator not stated, figures fit comparison with M81C.

As for `CC1(C)C[C@H]2C=C(C(=O)O)[C@@H]3COC(=O)[C@]4(CO4)[C@]23C1` [compound 2, pentalenolactone F], the Kd (in general, the equilibrium constant for the complex coming apart) stood at 115 ± 8 µM on PntM M77S [1]; 7.2 ± 0.8 µM in series [3]; 225 ± 45 µM at PntM-F232G; 270 ± 85 µM at PntM F232A [6]; 340 ± 90 µM at PntM M81A [9]; 43 ± 3 µM at PntM M81C [11]. The Kd came out at 31 ± 1 µM on PntM M81C-BME [12] and 160 ± 12 µM at PntM F232L [13]. The binding of substrate entry at PntM F232H and at PntM F232Y was “did not bind” in each case. The “product profile (GC-MS)” value on PntM M77S [2] is given as “no change in product profile”; at PntM F232A [4], “exclusively pentalenolactone”; on PntM M81C-BME [7], “no change in product profile”; on PntM M81A [8] it was “no change in product profile”; on PntM M81C [10] it was “exclusive formation of the oxidative rearrangement product 1”. Further, the less active at PntM M77S [2] (setting [14]) and on PntM M81A [8] (setting [14]) was 5-15 fold in each case. Besides, the “lower kcat/Km than wild type PntM” value on PntM F232A [4] is greater than 60 fold. The “decrease in kcat compared to wild type PntM” value on PntM F232L [5] was 20 fold. In addition, the “reduction in Km compared to wild type PntM” value on PntM F232L [5] turned out to be 3 fold. For the same compound, at PntM F232L [5], the “reduction in kcat/Km compared to wild type PntM” value came to 7 fold. Further, at PntM F232L [5] (no detectable hydroxylation products), the “product profile (GC-MS of total product mixture)” value was “only the natural oxidative rearrangement product, pentalenolactone (1)”. At PntM M81C [10], the “reduction in kcat/Km compared to wild-type” value was 10 fold. Moreover, the “KD greater than that of wild-type PntM” value at PntM M81C [11] and on PntM M81C-BME [12] was 4-6 fold in each case.
For `CC1(C)C[C@H]2C[C@@H](C(=O)O)[C@@H]3COC(=O)[C@]4(CO4)[C@]23C1` [compound 7, 6,7-dihydropentalenolactone F], in [3], binding was put at a Kd of 170 ± 17 µM and the “binding weaker than natural substrate 2” value is recorded as roughly 25 times. For the same compound, the P450 binding spectrum result in series [3] (wild-type PntM, UV shift from 420 nm to 390 nm) is recorded as “normal Type I P450 binding spectrum”.
